Laboratory results: patent US8940894B2, “Aminothiazole compounds as kinase inhibitors and methods of using the same” (AB Science, priority 2007, dated 2015)

Legend:
[1] = behaviour of the polymorph form at relative humidity (storage); type: physicochemical; details: at 80% relative humidity
[2] = thermodynamic stability of the polymorph form versus temperature; type: physicochemical; details: at temperatures below 200° C.

CS(=O)(=O)O.Cc1ccc(NC(=O)c2ccc(CN3CCN(C)CC3)cc2)cc1Nc1nc(-c2cccnc2)cs1 [(VI), 4-(4-Methyl-piperazin-1-ylmethyl)-N-[4-methyl-3-(4-pyridin-3-yl-thiazol-2-ylamino)-phenyl]-benzamide methanesulfonate]
state of the polymorph form under humidity [1]: remains, dry | thermodynamic stability of the polymorph form [2]: thermodynamically stable
